Holding throughout (assay): inhibition of tumour cell growth, NCI panel, 48 h
Assay [1] has as its system U251 CNS.
Assay [2] concerns SF-295 CNS.
For assay [3], the system named is TK-10 renal.
In assay [4] the test system is SNB-19 CNS.
For assay [5], the system named is NCI-H226 lung.
In assay [6] the test system is IGROV1 ovarian.
For assay [7], the system named is SF-268 CNS.
Assay [8] concerns A498 renal.
Assay [9] deals with SK-MEL-2 melanoma.
Assay [10] concerns SNB-75 CNS.

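1) Cells in 96-well plates. 2) Compound, 48 h, 5 concentrations. 3) Linear interpolation between surrounding doses. 4) Unreached endpoint = highest concentration. GI50 = concentration required for 50% inhibition of growth. TGI denotes the concentration required for complete inhibition of growth.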 Some results are limits rather than exact numbers.

As to `COc1ccc2cc(-c3c(-c4ccncc4)nc(-c4ccc(S(C)(=O)=O)cc4C)n3C)ccc2c1`, the GI50 in [1] was 11.2 µM; in assay [2] it was 7.83 µM; in assay [3], 5.82 µM; in assay [4], 9.04 µM; in [5], 4.17 µM; in assay [6], 7.47 µM. Besides, the GI50 in assay [7] is 11.1 µM; in [8] it was 6.31 µM; in [9], 6.78 µM; in [10], 6.67 µM. The TGI was over 25 µM in assay [1]; over 25 µM in [2]; 23.2 µM in assay [3]; over 25 µM in [4]; over 20.4 µM in assay [5]; over 25 µM in [6]. For the same molecule, the TGI in assay [7], in assay [8], in assay [9] and in assay [10] was over 25 µM each time.

For `Cc1cc2c(cc1C)N(C(=O)CCl)CCN2C(=O)CCl`, the GI50 in assay [1] is 1.39 µM; in assay [2], 1.96 µM; in assay [3], 1.79 µM; in assay [4] it was 1.81 µM; in assay [5], 0.559 µM; in [6] it was 0.62 µM. Besides, the GI50 was 1.82 µM in assay [7], 1.79 µM in [8], 1.81 µM in [9] and 1.48 µM in assay [10]. Also, the TGI in assay [1] is 2.88 µM; in [2], 4.13 µM; in [3], 4.76 µM; in assay [4] it was 4.1 µM; in [5], 1.8 µM; in [6], over 19.9 µM. In addition, the TGI in [7] is 3.89 µM; in [8], 3.29 µM; in assay [9], 4.22 µM; in [10], 3.1 µM.

As for `CCC[n+]1cc2cc(OC)c(OC)cc2c2c1-c1cc3c(cc1C2)OCO3`, the GI50 was 0.211 µM in [1]; 8.1 µM in [2]; 22.6 µM in assay [3]; 0.254 µM in assay [4]; 1.03 µM in [5]; 2.27 µM in [6]. Further, the GI50 in assay [7] is 0.568 µM; in assay [8] it was 17.6 µM; in [9] it was 2.65 µM; in assay [10], 0.843 µM. For the same molecule, the TGI came out at 3.57 µM in assay [1]; 26.6 µM in assay [2]; 58.9 µM in [3]; 1.68 µM in assay [4]; 8.13 µM in assay [5]; 12.6 µM in assay [6]. Besides, the TGI came to 5.84 µM in [7], 50.9 µM in assay [8], 9.18 µM in assay [9] and 4.52 µM in assay [10].

Values taken from PubChem BioAssay (NCI).
